We go through 2 molecules from patent US4758421A (priority 1985, dated 1988).

The subject of experiment [1] is Chinese hamster ovary (CHO) cells. The experiment can be described thus: CHO cell survival after 60 minutes exposure (FIG. 4). The class given is cell-based. As for the experimental part:
Chinese hamster ovary (CHO) cells were cultured in standard cell-culture medium, under log phase growth conditions. Increasing concentrations of either BL--Co--S--FeEDTA or FeEDTA were added to each of two groups of cells. The cells were incubated for 60 minutes at 37° C., and the percent cell survivors was determined conventionally by serial dilution in microtitre plates.

Experiment [2] relates to CHB235. Description: Binding constants with monoclonal antibody CHB235 by equilibrium dialysis. Also on record: species or system mice. The settings on record: specificity of antibody for the antibody-inducing antigen. As for the experimental part:
(§1) Monoclonal antibodies against L--benzyl--EDTA--In were prepared in cooperation with Hybritech, Inc., 11085 Toneyana Road, San Diego, Calif. 92121. Briefly, an L--benzyl--EDTA--In isothiocyanate reagent was reacted with keyhole limpet hemocyanin, which was used to immunize mice. Splenocytes derived from the immunized mice were fused with a suitable tumor cell line, using known somatic cell hybridization techniques. Promising clones were grown in mouse ascites fluid, and the antibodies obtained were purified by ion-exchange chromatography. Two antibodies against L--benzyl--EDTA--In, designated CHA255 and CHB235, were selected.
(§2) The binding constants of the two monoclonal antibodies with L--benzyl--EDTA chelates of several different metals were determined by equilibrium dialysis. The measured binding constants were shown in Table II below, with standard deviations indicated in parentheses.
(§3) Table III gives binding constant data from a second binding affinity study, involving different In--EDTA and In--HED3A chelates.

The test system of experiment [3] is CHA255. Description: Binding constants with monoclonal antibody CHA255 by equilibrium dialysis. Also on record: species or system mice. The settings on record: specificity of antibody for the antibody-inducing antigen. The protocol:
as §1, §2, §3
(Equilibrium dialysis compares concentrations on both sides of a semipermeable membrane.)

Regarding `O=C([O-])CN(CCN(CC(=O)[O-])CC(=O)[O-])CC(=O)[O-].[Fe+3]` [FeEDTA], the cell toxicity entry in experiment [1] is recorded as “relatively non-toxic”. With L--benzyl--EDTA--In [In (III)], the “binding constant greater than for non-antigen metal chelates” value in experiment [2] and in experiment [3] was 1 to 4 orders of magnitude throughout.
